We go through one compound from patent EP4079295A1, “COMPOSITION HAVING IMPROVED SOLUBILITY AND BIOAVAILABILITY OF OLAPARIB” (Samyang Holdings Corporation, priority 2019, dated 2021).

Data set [1] in a line: Test Example 1: drug solubility, simple mixture versus solid dispersion. The format is physicochemical. To be noted: thermodynamic from solid, 20 ml, amount corresponding to 400 mg of Olaparib, 37°C, 100 rpm. Here is the method:
To 20 ml of distilled water and pH 1.2 buffer, each of the solid dispersions of Example 1 and 4 and the simple mixtures of Comparative Examples 2 and 3 corresponding to 400 mg of Olaparib was added, and stirred in an incubator at 37°C with 100 rpm for 1 hour. The test solution was filtered with RC syringe filter (0.2 µm) and 1 mL of the filtered solution was taken and diluted with 2 mL of the following diluent solution, and then the amount was measured according to Olaparib amount analysis method.
• 1) Diluent solution preparation Diluent solution - water (DW): acetonitrile (CAN)=1:1 • 2) Operation • Detector: UV absorption spectrometer 254 nm • Column: Nova-Pak C18 Column, 60Å, 4 µm, 3.9 mm × 150 mm • Flow rate: 1.2 ml/min • Injection amount: 5 µl • Column temperature: 35°C • Run time: 16 min • Mobile phase [Table 4]

The conditions of data set [2]: cited from earlier work.

Structures are written as SMILES. Values after ≈ are worked out from the molar mass of the structure shown.

In the case of `O=C(c1cc(Cc2n[nH]c(=O)c3ccccc23)ccc1F)N1CCN(C(=O)C2CC2)CC1` [Olaparib], the solubility at 1 h in data set [1] (simulated gastric fluid, pH 1.2 buffer) is 100 µg/mL (≈ 230 µM); in data set [1] (water (distilled water)), 100 µg/mL (≈ 230 µM). In addition, the water solubility in data set [2] was 100 to 130 µg/mL. Besides, the pKa in data set [2] (weak acidic) is 12.07.
